Here are results for two compounds from US6034246A, “2-arylbenzazole compounds” (Cancer Research Campaign Technology Limited, priority 1995, dated 2000).

The subject of assay [1] is SDBR3. Briefly: in vitro inhibitory activity against human breast tumour cell line SDBR3 (Table 4). In kind it is cell-based. The note with it: initial seeding density 2.5 × 10^2 cells/well. The text has this: (§1) Tables 1 to 4 at the end of the present description show in vitro test results obtained in various sets of experiments for the cytotoxic activity of several of the benzazole compounds concerned, including also for reference results for the compound CJM 126 and comparative results for compound DF129, when tested against a range of tumor cell lines which includes ovarian, lung and certain colon and renal cancer cells from the National Cancer Institute (USA) collection. As usual the results are expressed in terms of IS50 values (concentration or dosage required to reduce cell growth or proliferation by 50%) calculated from dose-effect curves plotted for cultures of the cells in question.
(§2) In carrying out the in vitro studies, the cytotoxicity assays may be carried out by a method corresponding substantially to the following example: […]
(§3) On day 7 the test was terminated by the addition of 100 μl saline containing 0.002% w/v propidium iodide (Sigma), 0.3% drawing ink (Staedtler "Marsmatic 745"--Trade Mark) and 0.5% Triton X-100. The plates were kept at 4° C. overnight before reading on an inverted microscope equipped with an automated scanning stage. Fluorescence intensity was measured in arbitrary units by a photomultiplier. […]

In assay [2] the test system is NCI HOP-92. Briefly: in vitro inhibition of growth of human lung cancer cell line NCI HOP-92 (Table 1). In kind it is cell-based.
Text: as §1, §2, §3

Assay [3] has as its system MCF-7B. Briefly: in vitro inhibitory activity against human breast tumour cell line MCF-7B (Table 4). In kind it is cell-based. Conditions: initial seeding density 2.5 × 10^2 cells/well.
Text: as §1
In carrying out the in vitro studies, the cytotoxicity assays may be carried out by a method corresponding substantially to the following example:
Cells were maintained in a continuous logarithmic culture in Dublecco's medium supplemented with 10% fetal calf serum and penicillin (100 IU/ml) and streptomycin ([…]). The cells were mildly trypsinized for passage and for use in assays. On day zero, 100 μl of trypsinized tumor cells (1×10^4 /ml) were plated in the wells of 96-well flat-bottom microtiter plates. The plates were incubated for 2 days at 37° C. and 5% CO2 in air to allow the cells to adhere and resume exponential growth prior to the addition of drugs.
On day two 50 μl of the highest drug concentration was added to the wells of column 12 and from there serially diluted 3-fold to column 1 by serial transfer of 50 μl using an 8-channel micropipette. The final volume of column 1 was adjusted to 100 μl. No additions were made to the wells of rows A and B, which served as controls. […]
as §3

Assay [4] relates to MT-1. Description: in vivo antitumor test, human breast carcinoma MT-1 xenotransplanted in nude mice. The note with it: MT-1, optimum dose 6.25 mg/Kg/inj i.p., qd 7, 14, 21. The protocol:
In one typical set of experiments, four human breast carcinomas xenotransplanted into female Ncr: nu/nu (Taconic, Germantown, U.S.A.) or male Bom: NMRI-nu/nu mice (Bomholtgaard, Ry, Denmark) were used for the evaluation of antitumor activity. Mice weighing 20-25 g at the start of experiments were held under sterile conditions at 24-26° C., 50% relative humidity and 12 hours light-dark rhythm in laminar flow shelves. The animals received autoclaved food and bedding; the drinking water was filtered and acidified (pH4.0).
The following breast carcinoma cell lines were used: BO; MCF-7 (NCI, U.S.A.); MT-1 and MT-3. The tumors BO and MCF-7 are ER^+ models: the carcinomas MT-1 and MT-3 are ER^- ones. Tumors were transplanted subcutaneously (s.c.) as pieces (2×2 mm) into the left flank of 5-8 nude mice/experimental group. Drug treatment was initiated when the tumors reached a diameter of 4-5 mm. […] Tumor size was measured twice weekly with a caliper. Median tumor volume/group was related to the first treatment day and expressed as Relative Tumor Volume (RTV). For the estimation of toxicity, body weight was determined twice weekly and the mean percentage body weight change (BCC) was calculated. In one experiment blood was obtained from the retroorbital venous plexus of mice and blood cells were determined with a Coulter counter (Model T41).

Some results are limits rather than exact numbers.

Broadly, the IC50 is the midpoint of a concentration-inhibition curve. Higher therefore signals a need for much substance. Take `Nc1ccc(-c2nc3ccccc3s2)cc1I` [DF129, 2-(4'-amino-3'-iodophenyl)benzothiazole]: the results for the IC50 in assay [1] and in assay [2] were below 1 nM and below 10 nM, respectively.

In assay [3], `Cc1cc(-c2nc3ccccc3s2)ccc1N` [DF203, 2-(4'-amino-3'-methylphenyl)benzothiazole] registered an IC50 of 10 nM. The evaluation result in assay [4] is “++ (T/C = 21-35%)”. The “RTV, relative tumor volume (T/C %)” value in assay [4] (marked * significant versus control) is listed as 34%.
